Assay results from patent EP0390515A1, “Novel adenine derivatives and their use as agents for increasing crop yields” (MITSUBISHI GAS CHEMICAL COMPANY, INC., priority 1989, dated 1990).

Tested on: wheat shoots
Experiment: Absorption from the base of wheat shoots and translocation (senescence retardation of leaf sections)
Format: cell-based, wheat [var.: Yukichabo (Triticum astivum)]
Conditions: for The senescence retardation (%): 10 mg/l taken up from shoot base for 18 hours
Description: Wheat seedlings were grown to a height of 14-15 cm in the same manner as in the above Example 8 test (1) and the shoot was cut off at the base. These sections were used for the test.
A solution (10 ml) containing 10 mg/l of the candidate compound or benzyladenine was poured into a test tube 2.5 cm in diameter and five of the wheat shoots as one group were inserted in one test tube containing the candidate solution and left at 25°C for 18 hours under irradiation with light of 1500 Lx. Thereafter, each of the shoots was cut at 5-6 cm, 8-9 cm and 11-12 cm from the above cut end and five of the respective sections as one group were floated on the surface of distilled water (2 ml) in a glass tubular bottle 32 mm in inner diameter with the upper surface of the leaves being uppermost. These were left at 25°C for 3 days in the dark and thereafter, the leaf sections were put in a test tube containing 10 ml of 80% ethanol. This test tube was immersed in a water bath at 80°C for 20 minutes to extract chlorophyll. After cooling, 80% ethanol was added to make up to 10 ml and absorbance of the solution at 665 nm was measured. In the same manner as in the above Example 8 test (1), senescence retardation was obtained.

[1] = region of leaf section 5-6 (cm) from cut end
[2] = region of leaf section 8-9 (cm) from cut end
[3] = region of leaf section 11-12 cm from cut end

Structure (SMILES) | The senescence retardation (%) [1] [%] | The senescence retardation (%) [2] [%] | The senescence retardation (%) [3] [%] | senescence retardation compared with benzyladenine (absorbability and translocation) (all regions of the first true leaf of wheat, result in words)
c1ccc(CNc2ncnc3nc[nH]c23)cc1 [Benzyladenine, 6-benzylaminopurine, reference compound] | 17 | 21 | 14 | –
CON(C)CCNc1ncnc2nc[nH]c12 [MAED, N⁶-[2-(N-methoxy-N-methylamino)ethyl]adenine] | 37 | 34 | 20 | more pronounced effect of senescence retardation than benzyladenine in all regions
